Test results reported in patent publication US20220226337A1 (Gilead Sciences, Inc., priority 2018, published 2022).

Molecular target: T1, α4β7 integrin interaction with MadCAM-1 (RPMI8866 cells) (Homo sapiens, UniProt P13612+P26010)
T1 construct: α4β7 integrin expressing cells; endogenous in cells; host or cells: RPMI8866 cells
T1 sequence (P13612 34-1032): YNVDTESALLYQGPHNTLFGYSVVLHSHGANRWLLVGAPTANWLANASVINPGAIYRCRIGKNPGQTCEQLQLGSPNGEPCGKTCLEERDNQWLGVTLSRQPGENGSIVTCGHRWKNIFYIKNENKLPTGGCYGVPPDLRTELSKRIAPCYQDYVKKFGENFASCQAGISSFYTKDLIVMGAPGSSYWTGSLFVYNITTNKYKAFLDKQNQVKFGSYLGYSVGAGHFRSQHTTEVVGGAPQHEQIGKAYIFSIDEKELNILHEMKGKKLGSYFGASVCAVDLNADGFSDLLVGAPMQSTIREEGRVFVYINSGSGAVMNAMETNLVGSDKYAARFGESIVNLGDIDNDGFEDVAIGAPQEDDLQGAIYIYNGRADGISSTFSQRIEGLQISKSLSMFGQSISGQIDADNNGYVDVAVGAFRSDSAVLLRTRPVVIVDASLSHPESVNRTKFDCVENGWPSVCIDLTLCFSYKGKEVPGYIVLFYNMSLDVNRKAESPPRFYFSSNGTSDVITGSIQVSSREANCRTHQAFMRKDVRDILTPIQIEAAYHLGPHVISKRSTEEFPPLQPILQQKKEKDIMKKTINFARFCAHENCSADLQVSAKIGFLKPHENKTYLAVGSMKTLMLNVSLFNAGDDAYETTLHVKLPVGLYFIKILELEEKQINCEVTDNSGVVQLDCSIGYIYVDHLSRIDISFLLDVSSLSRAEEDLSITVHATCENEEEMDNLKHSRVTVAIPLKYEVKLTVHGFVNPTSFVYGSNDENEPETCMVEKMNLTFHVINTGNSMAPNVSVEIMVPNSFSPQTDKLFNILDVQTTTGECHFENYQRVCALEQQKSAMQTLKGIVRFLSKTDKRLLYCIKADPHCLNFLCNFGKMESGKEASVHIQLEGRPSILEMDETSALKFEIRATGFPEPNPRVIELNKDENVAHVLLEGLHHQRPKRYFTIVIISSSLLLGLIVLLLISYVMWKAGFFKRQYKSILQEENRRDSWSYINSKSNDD
T1 sequence (P26010 20-798): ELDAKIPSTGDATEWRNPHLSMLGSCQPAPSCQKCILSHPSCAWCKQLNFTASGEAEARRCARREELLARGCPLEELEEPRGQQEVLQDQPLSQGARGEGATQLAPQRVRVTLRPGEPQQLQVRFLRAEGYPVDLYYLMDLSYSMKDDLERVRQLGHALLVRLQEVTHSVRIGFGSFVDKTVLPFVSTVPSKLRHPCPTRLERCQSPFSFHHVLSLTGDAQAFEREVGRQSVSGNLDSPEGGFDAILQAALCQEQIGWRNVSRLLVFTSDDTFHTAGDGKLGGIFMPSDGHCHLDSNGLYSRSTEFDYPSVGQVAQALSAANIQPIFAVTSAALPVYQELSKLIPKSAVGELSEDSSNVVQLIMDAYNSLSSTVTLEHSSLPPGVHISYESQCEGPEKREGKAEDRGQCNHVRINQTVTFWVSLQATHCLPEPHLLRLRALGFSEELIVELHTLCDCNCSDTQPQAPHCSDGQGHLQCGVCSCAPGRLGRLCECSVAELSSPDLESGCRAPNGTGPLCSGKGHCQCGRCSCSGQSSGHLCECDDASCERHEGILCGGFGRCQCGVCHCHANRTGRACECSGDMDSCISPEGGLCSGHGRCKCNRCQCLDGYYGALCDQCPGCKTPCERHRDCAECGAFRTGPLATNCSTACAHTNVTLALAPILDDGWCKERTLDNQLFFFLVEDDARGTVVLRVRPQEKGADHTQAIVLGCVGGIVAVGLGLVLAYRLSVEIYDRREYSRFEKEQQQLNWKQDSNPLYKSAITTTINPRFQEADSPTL
Assay: α4β7 Integrin Cell Capture Assay
Format: cell-based
Conditions: capture of α4β7 integrin expressing RPMI8866 cells on recombinant MadCAM-1 extracellular domain-coated plate; 0.5 mM MnCl2
Procedure, shortened: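 RPMI8866 cells (0.5×10^6 cells/mL in DMEM + 0.5% FBS + 0.5 mM MnCl2) preincubated with compound 1 h at 37 °C, then allowed to adhere 30 min at 37 °C to plates coated with MAdCAM-1 extracellular domain (1.0 μg/mL). Bound cells fixed with 2% glutaraldehyde, Hoechst-stained, imaged and counted; EC50 from cell count versus concentration.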

SMILES	EC50
COc1cc(C)n(C)c(=O)c1-c1ccc(C[C@H](NC(=O)c2c(C)cc(N3CCOC[C@@H]3C(F)(F)F)cc2F)C(=O)O)c2c1OCCC2 [Example 166]	0.195 nM
Cc1nc(-c2ccc(C[C@H](NC(=O)c3c(F)cc(N4CCCC[C@@H]4C(F)(F)F)cc3F)C(=O)O)c3c2OCCC3)c(=O)n(C)c1C [Example 156]	0.84 nM
Cn1nc(-c2ccc(C[C@H](NC(=O)c3c(Cl)cccc3Cl)C(=O)O)c3c2OCCC3)c2ccccc21 [Example 69, (S)-2-(2,6-dichlorobenzamido)-3-(8-(1-methyl-1H-indazol-3-yl)chroman-5-yl)propanoic acid]	158 nM
O=C(N[C@@H](Cc1ccc(-c2c(Cl)cc(F)cc2Cl)c2c1C1CC1CO2)C(=O)O)c1c(F)cccc1F (stereo partly drawn) [Example 77, (2S)-3-(4-(2,6-dichloro-4-fluorophenyl)-1,1a,2,7b-tetrahydrocyclopropa [c]chromen-7-yl)-2-(2,6-difluorobenzamido)propanoic acid]	70.3 nM
Cc1cc(N2CCOC[C@@H]2C(F)(F)F)cc(F)c1C(=O)N[C@@H](Cc1ccc(-c2nc(C)c(C)n(C)c2=O)c2c1CCC2)C(=O)O [Example 199]	0.19 nM
CCc1nc(-c2ccc(C[C@H](NC(=O)c3c(F)cccc3F)C(=O)O)c3c2OCCO3)c(C(F)(F)F)c2ccccc12 [Example 3]	6.49 nM
CC[C@@H](Nc1cc(F)c(C(=O)N[C@@H](Cc2ccc(-c3c(C)nc(C)n(C)c3=O)c3c2CCCO3)C(=O)O)c(F)c1F)C(F)(F)F [Example 126]	0.379 nM
Cc1cc(N2CCOC[C@@H]2C(F)(F)F)cc(F)c1C(=O)N[C@@H](Cc1ccc(-c2cc3cnccc3n(C)c2=O)c2c1CCCO2)C(=O)O [Example 170]	0.14 nM
Cc1cc(N2CCOC[C@@H]2C(F)(F)F)cc(F)c1C(=O)N[C@@H](Cc1ccc(-c2nc(C)c(C)n(C)c2=O)c2c1CCCO2)C(=O)O [Example 165]	0.25 nM
Cc1nc(-c2ccc(C[C@H](NC(=O)c3c(F)cc(N4CCOC[C@@H]4C(F)(F)F)cc3F)C(=O)O)c3c2OCCO3)c(=O)n(C)c1C [Example 175]	0.205 nM
Cc1c(Cl)cc(-c2ccc(C[C@H](NC(=O)c3c(F)cc(N4CCOC[C@@H]4C(F)(F)F)cc3F)C(=O)O)c3c2OCCC3)c(=O)n1C [Example 141]	0.529 nM
O=C(N[C@@H](Cc1ccc(-c2c(Cl)cc(F)cc2Cl)c2c1OCCCO2)C(=O)O)c1c(Cl)cccc1Cl [Example 97, (S)-3-(9-(2,6-dichloro-4-fluorophenyl)-3,4-dihydro-2H-benzo[b][1,4]dioxepin-6-yl)-2-(2,6-dichlorobenzamido)propanoic acid]	62 nM
O=C(N[C@@H](Cc1ccc(-c2c(Cl)cc(F)cc2Cl)c2c1C1CC1CO2)C(=O)O)c1c(Cl)cccc1Cl (stereo partly drawn) [Example 80, (2S)-3-(4-(2,6-dichloro-4-fluorophenyl)-1,1a,2,7b-tetrahydrocyclopropa[c]chromen-7-yl)-2-(2,6-dichlorobenzamido)propanoic acid]	67.7 nM
Cn1c2c(nc(-c3ccc(C[C@H](NC(=O)c4c(F)cc(N5CCOC[C@@H]5C(F)(F)F)cc4F)C(=O)O)c4c3OCCC4)c1=O)CCCC2 [Example 127]	0.455 nM
Cn1c(=O)c(-c2ccc(C[C@H](NC(=O)c3c(F)cc(N4CCOC[C@@H]4C(F)(F)F)cc3F)C(=O)O)c3c2COC3)cc2cnccc21 [Example 190]	0.338 nM
Cc1c(C(F)(F)F)cn(C)c(=O)c1-c1ccc(C[C@H](NC(=O)c2c(F)cc(N3CCOC[C@@H]3C(F)(F)F)cc2F)C(=O)O)c2c1COC2 [Example 29, (S)-2-(2,6-difluoro-4-((R)-3-(trifluoromethyl)morpholino)benzamido)-3-(7-(1,4-dimethyl-2-oxo-5-(trifluoromethyl)-1,2-dihydropyridin-3-yl)-1,3-dihydroisobenzofuran-4-yl)propanoic acid]	0.817 nM
Cc1nc(C)n(C)c(=O)c1-c1ccc(C[C@H](NC(=O)c2c(F)cc(N3CCOC[C@@H]3C(F)(F)F)cc2F)C(=O)O)c2c1OCCC2 (atropisomer, axis not shown) [Example 117]	0.203 nM
COc1ccc(C)nc1-c1ccc(C[C@H](NC(=O)c2c(F)cc(N3CCOC[C@@H]3C(F)(F)F)cc2F)C(=O)O)c2c1OCCC2 [Example 140]	0.55 nM
